Assays:
human eIF4E protein = target: T1, human eIF4E protein (Homo sapiens, UniProt P06730); assay: Biochemical competitive binding assay (TR-FRET competition, EDA-m7GDP-ATTO-647N probe); conditions: read-out: hEIF4E TR-FRET IC50
T1 construct: purchased Novus NBP-45314
Experimental: The potencies of compounds binding to human eIF4E protein were measured using a 384-well time-resolved fluorescence resonance energy transfer (TR-FRET) competition assay. The assay was performed in assay buffer containing 50 mM HTEPES pH 7.5, 100 mM KCl, 0.02% Tween-20, and 0.1 mg/mL bovine serum albumin (BSA). The reaction volume was 10 μL and each reaction contained 4 nM recombinant 6×HIS-tagged human EIF4E protein (Novus, NBP-45314), 5 nM EDA-m7GDP-ATTO-647N (Jena Bioscience, NU-827-647N), 2.5 nM Europium conjugated Anti-6×HIS antibody (PerkinElmer, AD0402) and varying concentrations of compound. The final DMSO concentration was […].
Compounds were prepared using 11-point, 4-fold serial dilutions in DMSO and 100 nL of diluted compounds were transferred to 384-well assay-ready plates. Recombinant human EIF4E protein at 2× final concentration (8 nM) was pre-incubated with Eu-anti-6×HIS antibody at 2× final concentration (5 nM) for 5 minutes, then 5 μL of the protein solution was added to assay-ready plates. The protein/compound mix was incubated for 15 minutes, after which 5 μL of a solution containing EDA-m7GDP-ATTO-647N probe at 2× final concentration (10 nM) was added. After a subsequent 15-minute incubation, time-resolved fluorescence of assay plates was measured using a Clariostar Plus microplate reader (BMG Labtech) and TR-FRET values were calculated by taking a ratio of the 665 to 620 wavelength signals. After normalization to the average of DMSO control and maximum inhibition control wells, concentration-response data were plotted and standard 4-parameter curve fitting (PEI Signals) was utilized to determine IC50 values.

[1] = test system: COLO 205 colorectal tumor cells; assay: Tumor cell viability inhibition assay (CellTiter-Glo 2.0, 72 hours); type: cell-based; conditions: COLO 205 cell viability
Experimental: The effect of compound treatment on COLO 205 tumor cell viability was assessed using cellular ATP quantification methods (Promega CellTiter-Glo® 2.0, G9241), as follows. Test compounds were prepared using 11-point, 4-fold serial dilutions in DMSO and 100 nL of diluted compounds were transferred to 384-well assay-ready plates. COLO 205 (ATCC, CCL-222) colorectal tumor cells were seeded to assay-ready plates in RPMI-1640 medium supplemented with 10% FBS at 1500 cells in a volume of 33.5 microliters per well. After 72 hours of compound treatment, cellular ATP was assessed by CellTiter-Glo® 2.0 Cell Viability Assay method, according to the manufacturer's instructions. Luminescence was measured using a Clariostar Plus microplate reader (BMG Labtech) or equivalent. After normalization to the average of DMSO control and maximum inhibition control wells, concentration-response data were plotted and standard 4-parameter curve fitting (PEI Signals) was utilized to determine IC50

T1 sequence (P06730 whole entry): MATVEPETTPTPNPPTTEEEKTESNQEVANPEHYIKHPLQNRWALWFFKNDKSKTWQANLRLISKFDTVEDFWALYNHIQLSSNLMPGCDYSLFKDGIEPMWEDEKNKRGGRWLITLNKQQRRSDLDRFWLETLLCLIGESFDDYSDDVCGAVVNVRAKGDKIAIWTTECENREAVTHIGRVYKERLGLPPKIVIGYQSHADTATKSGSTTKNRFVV

SMILES | IC50 (human eIF4E protein) [µM] | IC50 ([1]; Homo sapiens, COLO 205, 72 h) [µM] | IC50 [1] [µM]
Cc1cc(-c2cc(Cl)ccc2OCCn2c(C)nc3c(c2=O)C[C@@H](N2C[C@@H]4CC(F)(F)C[C@@H]4C2)CC3)c2scc(C(=O)NS(C)(=O)=O)c2n1 (relative stereo) [Compound 369] | < 0.1 | < 5 | 
Cc1cc(-c2cc(Cl)ccc2OCCn2c(C)nc3c(c2=O)C[C@@H](N2CCC[C@@H](C(F)F)C2)CC3)c2scc(C(=O)O)c2n1 (single isomer, unassigned) [Compound 100] | < 0.1 | < 5 | 
Cc1cc(-c2cc(Cl)ccc2OCCn2c(C)nc3c(c2=O)C[C@@H](N2CCC[C@H](C(F)F)C2)CC3)c2scc(C(=O)O)c2n1 (single isomer, unassigned) [Compound 101] | < 0.1 | < 5 | 
Cc1cc(-c2cc(Cl)ccc2OCCn2c(C)nc3c(c2=O)CC(N2CCC(OC(F)(F)F)CC2)CC3)c2scc(C(=O)NS(C)(=O)=O)c2n1 (single isomer, unassigned) [Compound 104] | < 0.1 | < 5 | 
Cc1cc(-c2cc(Cl)ccc2OCCn2c(C)nc3c(c2=O)CC(N2CCC(OC(F)(F)F)CC2)CC3)c2scc(C(=O)NS(C)(=O)=O)c2n1 (single isomer, unassigned) [Compound 105] | < 0.1 |  | < 5
Cc1cc(-c2cc(Cl)ccc2OCCn2c(C)nc3c(c2=O)C[C@@H](N2CCC(CC(F)(F)F)CC2)CC3)c2scc(C(=O)O)c2n1 (single isomer, unassigned) [Compound 106] | < 0.1 | < 5 | 
Cc1cc(-c2cc(Cl)ccc2OCCn2c(C)nc3c(c2=O)C[C@H](N2CCC(CC(F)(F)F)CC2)CC3)c2scc(C(=O)O)c2n1 (single isomer, unassigned) [Compound 107] | < 0.1 | < 5 | 
Cc1cc(-c2cc(Cl)ccc2OCCn2c(C)nc3c(c2=O)C[C@H](N2CCC(n4cc(Cl)cn4)CC2)CC3)c2scc(C(=O)O)c2n1 (single isomer, unassigned) [Compound 108] | < 0.1 | < 5 | 
Cc1cc(-c2cc(Cl)ccc2OCCn2c(C)nc3c(c2=O)C[C@@H](N2CCC(n4cc(Cl)cn4)CC2)CC3)c2scc(C(=O)O)c2n1 (single isomer, unassigned) [Compound 109] | < 0.1 | < 5 | 
Cc1cc(-c2cc(Cl)ccc2OCCn2c(C)nc3c(c2=O)C[C@@H](N2CCC(N4CC(F)(F)C4)CC2)CC3)c2scc(C(=O)O)c2n1 (single isomer, unassigned) [Compound 110] | < 0.1 | 5 to 20 | 
Cc1cc(-c2cc(Cl)ccc2OCCn2c(C)nc3c(c2=O)C[C@H](N2CCC(N4CC(F)(F)C4)CC2)CC3)c2scc(C(=O)O)c2n1 (single isomer, unassigned) [Compound 111] | < 0.1 | < 5 | 
Cc1cc(-c2cc(Cl)ccc2OCCn2c(C)nc3c(c2=O)C[C@@H](N2CC[C@H](C(F)F)C2)CC3)c2scc(C(=O)O)c2n1 (single isomer, unassigned) [Compound 113] | < 0.1 | < 5 | 
Cc1cc(-c2cc(Cl)ccc2OCCn2c(C)nc3c(c2=O)C[C@H](N2CCC[C@@H](C(F)F)C2)CC3)c2scc(C(=O)O)c2n1 (single isomer, unassigned) [Compound 116] | < 0.1 | < 5 | 
Cc1cc(-c2cc(Cl)ccc2OCCn2c(C)nc3c(c2=O)C[C@H](N2CCC[C@H](C(F)F)C2)CC3)c2scc(C(=O)O)c2n1 (single isomer, unassigned) [Compound 117] | < 0.1 | < 5 | 
Cc1cc(-c2cc(Cl)ccc2OCCn2c(C)nc3c(c2=O)C[C@@H](N2CC[C@@H](C(F)F)C2)CC3)c2scc(C(=O)O)c2n1 (single isomer, unassigned) [Compound 120] | < 0.1 | < 5 | 
Cc1cc(-c2cc(Cl)ccc2OCCn2c(C)nc3c(c2=O)C[C@H](N2CC[C@@H](C(F)F)C2)CC3)c2scc(C(=O)O)c2n1 (single isomer, unassigned) [Compound 121] | < 0.1 | < 5 | 

— patent publication US20240246918A1, “COMPOUNDS AND COMPOSITIONS AS EIF4E INHIBITORS AND THE USES THEREOF” (Ribometrix, Inc., priority 2022, published 2024)
